From US8133849B2, “Herbicidal compounds” (Syngenta Limited, priority 2007, dated 2012)

Experiments:
Test in all cases: Example B2 herbicidal action, post-emergence, pots in glasshouse, damage score 0-10
Assay type in all cases: in vivo
Conditions in all cases: application post-emergence, rate 1000 g/ha, evaluated after 13 days
Amaranthus retroflexus = tested on: Amaranthus retroflexus
Method: (§1) Seeds of a variety of test species were sown in standard soil in pots. After 8 days cultivation (post-emergence) under controlled conditions in a glasshouse (at 24/16° C., day/night; 14 hours light; 65% humidity), the plants were sprayed with an aqueous spray solution derived from the formulation of the technical active ingredient in acetone/water (50:50) solution containing 0.5% Tween 20 (polyoxyethelyene sorbitan monolaurate, CAS RN 9005-64-5). The test plants were then grown in a glasshouse under controlled conditions in a glasshouse (at 24/16° C., day/night; 14 hours light; 65% humidity) and watered twice daily. After 13 days, the test was evaluated (10=total damage to plant; 0=no damage to plant).

Setaria faberi = tested on: Setaria faberi
Method: as §1

Ipomea hederaceae = tested on: Ipomea hederaceae
Method: as §1

Echinochloa crus-galli = tested on: Echinochloa crus-galli
Method: as §1

Solanum nigrum = tested on: Solanum nigrum
Method: as §1

| Compound | AMARE damage score (10=total damage to plant; 0=no damage to plant) (Amaranthus retroflexus) | SETFA damage score (10=total damage to plant; 0=no damage to plant) (Setaria faberi) | IPOHE damage score (10=total damage to plant; 0=no damage to plant) (Ipomea hederaceae) | ECHCG damage score (10=total damage to plant; 0=no damage to plant) (Echinochloa crus-galli) | SOLNI damage score (10=total damage to plant; 0=no damage to plant) (Solanum nigrum) |
| --- | --- | --- | --- | --- | --- |
| CCN1c2nccnc2C(OC(=O)C(C)(C)C)=C(c2ccc(Cl)cc2C(F)(F)F)S1(=O)=O [Compound C15] | 9 | 2 | 8 | 7 | 9 |
| CC(C)(C)C(=O)OC1=C(c2c(F)ccc(Cl)c2Cl)S(=O)(=O)N(CC(F)F)c2nccnc21 [Compound C20] | 10 | 0 | 10 | 8 | 10 |
| COc1ccc(Cl)c(C2=C(OC(=O)C(C)(C)C)c3nccnc3N(CC(F)F)S2(=O)=O)c1F [Compound C144] | 0 | 0 | 7 | 0 | 4 |
| CCSC(=O)OC1=C(c2c(Cl)cccc2C(F)(F)F)S(=O)(=O)N(CC(F)F)c2nccnc21 [Compound C105] | 10 | 9 | 8 | 9 | 9 |
| CC(C)(C)C(=O)OC1=C(c2c(F)ccc(-c3cccc(Cl)c3)c2Cl)S(=O)(=O)N(CC(F)F)c2nccnc21 [Compound C42, 2,2-dimethylpropionic acid-3-(2,3′-dichloro-4-fluoro-biphenyl-3-yl)-1-(2,2-difluoroethyl)-2,2-dioxo-1,2-dihydro-2-λ-6-thia-1,5,8-triaza-naphthalen-4-yl ester] | 2 | 2 | 4 | 2 | 3 |
| CCN1c2nccnc2C(OC(=O)C(C)(C)C)=C(c2cccc(Cl)c2Cl)S1(=O)=O [Compound C98] | 0 | 0 | 0 | 0 | 3 |
| O=S1(=O)C(c2cccc(Cl)c2Cl)=C(O)c2nccnc2N1CC(F)F [Compound D50] | 5 | 2 | 8 | 1 | 10 |
| CCN1c2nccnc2C(O)=C(c2ccccc2[N+](=O)[O-])S1(=O)=O [Compound D34] | 0 | 1 | 2 | 0 | 1 |
| CCN1c2nccnc2C(O)=C(c2cc(C(F)(F)F)ccc2Cl)S1(=O)=O [Compound D15] | 9 | 4 | 9 | 2 | 9 |
| CC(C)C(=O)OC1=C(c2cc(C(F)(F)F)ccc2Cl)S(=O)(=O)N(CCCl)c2nccnc21 [Compound C123] | 4 | 1 | 4 | 2 | 10 |
| CCSC(=O)OC1=C(c2cccc(Cl)c2Cl)S(=O)(=O)N(CC(F)F)c2nccnc21 [Compound C101] | 4 | 2 | 8 | 5 | 10 |
| CCN1c2nccnc2C(O)=C(c2cc(C(F)(F)F)ccc2C(F)(F)F)S1(=O)=O [Compound D24] | 6 | 1 | 10 | 3 | 10 |
| CC(C)C(=O)OC1=C(c2c(C(F)(F)F)cccc2C(F)(F)F)S(=O)(=O)N(CC(F)F)c2nccnc21 [Compound C79] | 9 | 6 | 9 | 7 | 9 |
| CC(C)(C)C(=O)OC1=C(c2c(Cl)cccc2Cl)S(=O)(=O)N(CC(F)F)c2nccnc21 [Compound C28] | 7 | 2 | 6 | 2 | 6 |
| CCSC(=O)OC1=C(c2cccc(Cl)c2Cl)S(=O)(=O)N(CC)c2nccnc21 [Compound C99] | 3 | 1 | 3 | 2 | 8 |
| C#CCN1c2nccnc2C(OC(=O)C(C)(C)C)=C(c2c(Cl)ccc(Cl)c2C(F)(F)F)S1(=O)=O [Compound C86] | 5 | 2 | 4 | 5 | 6 |
| CCN1c2nccnc2C(O)=C(c2ccccc2OC(F)(F)F)S1(=O)=O [Compound D5] | 10 | 6 | 9 | 4 | 10 |
| CCN1c2nccnc2C(O)=C(c2c(F)ccc(Br)c2Cl)S1(=O)=O [Compound D13] | 8 | 2 | 9 | 5 | 9 |
| O=S1(=O)C(c2ccc(I)cc2Cl)=C(O)c2nccnc2N1CC(F)F [Compound D59] | 4 | 1 | 4 | 3 | 8 |
| CCN1c2nccnc2C(OC(=O)C(C)(C)C)=C(c2c(Cl)cccc2C(F)(F)F)S1(=O)=O [Compound C17] | 8 | 4 | 7 | 5 | 9 |
| CC(C)C(=O)OC1=C(c2cccc(C(F)(F)F)c2Cl)S(=O)(=O)N(CC(F)F)c2nccnc21 [Compound C73] | 7 | 2 | 7 | 2 | 7 |
| CCSC(=O)OC1=C(c2c(Cl)ccc(Cl)c2Cl)S(=O)(=O)N(CC)c2nccnc21 [Compound C71] | 8 | 1 | 10 | 6 | 9 |
| CCN1c2nccnc2C(O)=C(c2cccc(C(F)(F)F)c2)S1(=O)=O [Compound D3] | 10 | 0 | 1 | 1 | 1 |
| CC(C)(C)C(=O)OC1=C(c2ccc(Cl)cc2Cl)S(=O)(=O)N(CC(F)(F)F)c2nccnc21 [Compound C104] | 10 | 3 | 9 | 6 | 10 |
| CC(C)C(=O)OC1=C(c2ccccc2C#N)S(=O)(=O)N(CC(F)F)c2nccnc21 [Compound C128] | 7 | 0 | 8 | 0 | 9 |
